Molecular target: T1, angiotensin converting enzyme (Oryctolagus cuniculus, UniProt P12822)
T1 sequence (P12822 34-1310): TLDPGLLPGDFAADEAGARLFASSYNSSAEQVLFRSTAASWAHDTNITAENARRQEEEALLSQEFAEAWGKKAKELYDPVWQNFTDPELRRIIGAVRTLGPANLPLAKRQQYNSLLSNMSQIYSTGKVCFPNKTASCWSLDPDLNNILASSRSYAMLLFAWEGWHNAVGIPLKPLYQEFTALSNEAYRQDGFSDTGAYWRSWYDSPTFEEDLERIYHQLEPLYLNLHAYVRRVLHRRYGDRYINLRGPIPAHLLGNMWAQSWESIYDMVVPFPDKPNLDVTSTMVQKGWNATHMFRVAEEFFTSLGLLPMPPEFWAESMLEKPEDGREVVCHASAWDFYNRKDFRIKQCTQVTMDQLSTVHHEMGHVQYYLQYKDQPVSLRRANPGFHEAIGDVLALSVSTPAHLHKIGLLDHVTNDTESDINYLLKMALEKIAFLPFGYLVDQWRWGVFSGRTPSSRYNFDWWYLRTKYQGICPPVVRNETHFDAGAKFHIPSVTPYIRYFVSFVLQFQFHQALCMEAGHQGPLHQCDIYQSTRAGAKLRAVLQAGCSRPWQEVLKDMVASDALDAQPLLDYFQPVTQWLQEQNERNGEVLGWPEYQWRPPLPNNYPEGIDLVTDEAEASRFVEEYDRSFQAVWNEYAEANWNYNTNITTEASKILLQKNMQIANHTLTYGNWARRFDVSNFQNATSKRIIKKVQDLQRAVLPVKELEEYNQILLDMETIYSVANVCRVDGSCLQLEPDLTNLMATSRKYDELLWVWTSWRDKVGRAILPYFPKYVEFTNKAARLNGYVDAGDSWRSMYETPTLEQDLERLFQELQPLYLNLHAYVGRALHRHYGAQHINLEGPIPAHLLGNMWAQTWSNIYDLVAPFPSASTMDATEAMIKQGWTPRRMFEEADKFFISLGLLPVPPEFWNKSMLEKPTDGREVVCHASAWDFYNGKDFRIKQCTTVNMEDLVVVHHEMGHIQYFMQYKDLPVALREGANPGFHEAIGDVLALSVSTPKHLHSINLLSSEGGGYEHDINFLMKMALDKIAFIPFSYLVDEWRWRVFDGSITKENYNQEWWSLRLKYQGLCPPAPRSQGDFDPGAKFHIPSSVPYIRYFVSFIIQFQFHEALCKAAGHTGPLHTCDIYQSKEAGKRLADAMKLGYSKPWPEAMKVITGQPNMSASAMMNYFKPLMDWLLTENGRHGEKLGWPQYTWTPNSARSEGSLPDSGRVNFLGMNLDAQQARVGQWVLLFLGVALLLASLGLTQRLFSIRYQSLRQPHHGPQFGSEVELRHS
Test: in vitro inhibition of angiotensin converting enzyme (hippuryl-histidyl-leucine cleavage)
Format: biochemical
Conditions: substrate hippuryl-histidylleucine 2 mM, pH 8.3, 24 minutes at 37° C.; esters cleaved by hog liver esterase before test
Experimental: The activity of the present compounds in inhibiting angiotensin converting enzyme in vitro can be determined by the following test.
The method used is based on the method of Cushman and Cheung (Biochem. Pharmacol., 20. 1637-1648) incorporating the modifications introduced by Hayakari et al (Anal. Biochem., 84. 361-369). The substrate (hippuryl-histidylleucine, 2 mM) is incubated with angiotensin converting enzyme in the presence or absence of various concentrations of test substance in potassium phosphate buffer (pH 8.3; 100 mM) containing sodium chloride (300 mM) for 24 minutes at 37° C. (total value 500 μl). (if the test substance is an ester, it is appropriate to cleave it by means of hog liver esterase before carrying out the test). The reaction is terminated by the addition of 3 ml of potassium phosphate buffer (pH 8.3; 200 mM) at 0° C. 2,4,6-Trichloro-s-triazine (3%) in 1.5 ml of dioxan is added and the mixture is agitated until the yellow chromophore has developed fully. The samples are then centrifuged to remove any precipitate which has formed. The yellow chromophore formed by the reaction of the 2,4,6-trichloro-s-triazine with free hippuric acid is measured spectrophotometrically at 382 nm. […]

IC50: 9.6 nM
SMILES: O=C(O)[C@@H]1CCCN2CCC[C@H](CP(=O)(O)O)C(=O)N12 [Compound A, Octahydro9(S)--phosphonomethyl10-oxo-6H--pyridazo[1,2a][1,2]diazepine1(S)-carboxylic acid]
